Assay [1] deals with PPARs target genes (PDK4, UCP2). Kind of assay: Hepatic and skeletal muscle gene expression by quantitative RT-PCR in db/db mouse. As to conditions: 50 mpk, 28 days. It is filed as in vivo. Here is the method: The effectiveness of the compounds according to the invention is also evaluated by measuring, in the hepatic and muscular (skeletal) tissues, the expression of genes involved in lipid and/or glucid metabolism and in energy dissipation. Each level of gene expression is normalized regarding the expression level of the reference gene 36B4 in the hepatic tissue, or regarding the expression level of the reference gene 18S in the gastrocnemius skeletal muscle. The induction factor, i.e. the ratio between the relative signal (induced by the compound according to the invention) and the average of the relative values obtained with the control group, is then calculated. The higher the induction factor is, the more the greater the compound promotes gene expression. The final result is represented as the average of the induction values obtained with each experimental group. • FIG. 4-8: Expression of PDK4 in the hepatic tissue of the db/db mouse, after 28 days of treatment with compound 1 and compound 3, administered at 50 mpk • FIG. 4-9: Expression of UCP2 (uncoupling protein 2) in the skeletal muscle tissue of the db/db mouse, after 28 days of treatment with compound 1 and compound 3, administered at 50 mpk
Total RNA was extracted from liver fragments by using a NucleoSpin® 96 RNA kit (Macherey Nagel, Hoerdt, France) according to the manufacturer's instructions.
Total RNA was extracted from gastrocnemius skeletal muscle fragments by using a RNeasy® Fibrous Tissue kit (Qiagen) according to the manufacturer's instructions.
1 μg of total RNA (quantified by spectrophotometry) was then reverse-transcripted into complementary DNA by means of a 1 hour reaction at 37° C. in a total volume of 20 μl containing a 1× buffer (Sigma), 1.5 mM of DTT, 0.18 mM of dNTPs (Promega), 200 ng of pdN6 (Amersham), 30 U of RNase inhibitor (Sigma), and 1 μl of MMLV-RT (Sigma).
The PCR quantitative experiments were carried out using the MyiQ Single-Color Real-Time PCR Detection System (Biorad, Marnes-la-Coquette, France) and were performed using the iQ SYBR Green Supermix kit according to the provider's recommendations, in 96-well plates in 5 μl of a diluted reverse-transcription solution at a hybridization temperature of 55° C. The specific primer pairs of the genes being studied were used:
The amount of fluorescence emitted is directly proportional to the amount of complementary DNA present at the beginning of the reaction and amplified during the PCR. For each target studied, a range of solutions is performed with successive dilutions of mixtures of a few microliters of different reverse-transcription solutions. The relative levels of expression of each target are thus determined by using efficiency curves obtained with the points relative to the range of PCR solutions. […]

Assay [2] concerns PPARs target genes (PDK4, ApoCIII). Kind of assay: Hepatic gene expression by quantitative RT-PCR in C57BI6 mouse. Type of assay: in vivo. As to conditions: C57BI6 mouse, 3, 10, and 30 mpk, 14 days, normalized to 36B4. Here is the method: The effectiveness of the compounds according to the invention is also evaluated by measuring, in hepatic tissue, the expression of the genes involved in lipid metabolism. Each level of gene expression is normalized regarding the expression level of the reference gene 36B4. The induction factor is then calculated. The higher the induction factor is, the more the compound promotes hepatic gene expression. […]
Total RNA was extracted from liver fragments by using a NucleoSpin® 96 RNA kit (Macherey Nagel, Hoerdt, France) according to the manufacturer's instructions. 1 μg of total RNA (quantified by spectrophotometry) was then reverse-transcripted into cDNA by means of a 1 hour reaction at 37° C. in a total volume of 20 μl containing a 1× buffer (Sigma), 1.5 mM of DTT, 0.18 mM of dNTPs (Promega), 200 ng of pdN6 (Amersham), 30 U of RNase inhibitor (Sigma), and 1 μl of MMLV-RT (Sigma).
The PCR quantitative experiments were carried out using the MyiQ Single-Color Real-Time PCR Detection System (Biorad, Marnes-la-Coquette, France) and were performed using the iQ SYBR Green Supermix kit according to the provider's recommendations, in 96-well plates in 5 μl of a diluted reverse transcription solution and at a hybridization temperature of 55° C. […]
The amount of fluorescence emitted is directly proportional to the amount of cDNA present at the beginning of the reaction and amplified during the PCR. […]

Results on one compound are retold here after US8188148B2, “Substituted 1,3-diphenylpropane derivatives, preparations and uses thereof” (Genfit, priority 2006, dated 2012).

Structures are written as SMILES.

For the compound `Cc1cc(CCC(=O)c2ccc(OC(F)(F)F)cc2)cc(C)c1OC(C)(C)C(=O)O` [Compound 1, 2-[2,6-dimethyl-4-[3-[4-(trifluoromethyloxy)phenyl]-3-oxo-propyl]phenoxy]-2-methyl-propanoic acid], in assay [1] (gastrocnemius skeletal muscle), the “expression of the gene coding for UCP2 in the skeletal muscle” value was “reduction”. Also, the “hepatic expression of the gene coding for PDK4” value in assay [1] (hepatic tissue) is “significant increase”. Moreover, in assay [2], the “hepatic expression of the gene coding for ApoCIII” value was “reduction” and the “hepatic expression of the gene coding for PDK4” value is given as “significant increase”.
